In patent US20080255186A1, “Pyrazolo[3,4-B]Pyridine Compound, and Its Use as a Pde4 Inhibitor” (priority 2005, published 2008):

Target: T1, PDE6 (from bovine retina) (Bos taurus, UniProt P11541+P23439)
T1 construct: PDE6 can be purified from bovine retina; from tissue; host or cells: bovine retina
T1 sequence (P11541 2-856 limits assumed): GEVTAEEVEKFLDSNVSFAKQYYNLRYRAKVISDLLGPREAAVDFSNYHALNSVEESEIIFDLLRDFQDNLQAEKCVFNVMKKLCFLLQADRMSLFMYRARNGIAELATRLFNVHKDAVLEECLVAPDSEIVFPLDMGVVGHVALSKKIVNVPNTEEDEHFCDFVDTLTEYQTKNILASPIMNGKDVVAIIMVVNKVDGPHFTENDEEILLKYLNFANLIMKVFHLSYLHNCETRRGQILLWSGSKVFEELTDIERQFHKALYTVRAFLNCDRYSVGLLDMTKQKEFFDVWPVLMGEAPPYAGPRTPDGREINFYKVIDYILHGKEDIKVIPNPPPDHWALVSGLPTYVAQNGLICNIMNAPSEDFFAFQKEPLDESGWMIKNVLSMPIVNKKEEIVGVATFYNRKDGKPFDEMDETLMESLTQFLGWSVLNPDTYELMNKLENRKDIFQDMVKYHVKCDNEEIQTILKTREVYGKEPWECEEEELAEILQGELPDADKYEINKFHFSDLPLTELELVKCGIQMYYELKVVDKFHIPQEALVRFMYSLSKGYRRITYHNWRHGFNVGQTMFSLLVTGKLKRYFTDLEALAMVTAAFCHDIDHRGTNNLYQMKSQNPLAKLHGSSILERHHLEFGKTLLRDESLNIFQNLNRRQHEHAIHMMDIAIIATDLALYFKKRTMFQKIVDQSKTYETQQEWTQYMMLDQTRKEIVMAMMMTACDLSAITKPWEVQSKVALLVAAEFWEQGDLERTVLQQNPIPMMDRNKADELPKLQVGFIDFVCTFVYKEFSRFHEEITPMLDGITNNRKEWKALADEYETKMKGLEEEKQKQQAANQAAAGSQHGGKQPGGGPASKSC
T1 sequence (P23439 2-850 limits assumed): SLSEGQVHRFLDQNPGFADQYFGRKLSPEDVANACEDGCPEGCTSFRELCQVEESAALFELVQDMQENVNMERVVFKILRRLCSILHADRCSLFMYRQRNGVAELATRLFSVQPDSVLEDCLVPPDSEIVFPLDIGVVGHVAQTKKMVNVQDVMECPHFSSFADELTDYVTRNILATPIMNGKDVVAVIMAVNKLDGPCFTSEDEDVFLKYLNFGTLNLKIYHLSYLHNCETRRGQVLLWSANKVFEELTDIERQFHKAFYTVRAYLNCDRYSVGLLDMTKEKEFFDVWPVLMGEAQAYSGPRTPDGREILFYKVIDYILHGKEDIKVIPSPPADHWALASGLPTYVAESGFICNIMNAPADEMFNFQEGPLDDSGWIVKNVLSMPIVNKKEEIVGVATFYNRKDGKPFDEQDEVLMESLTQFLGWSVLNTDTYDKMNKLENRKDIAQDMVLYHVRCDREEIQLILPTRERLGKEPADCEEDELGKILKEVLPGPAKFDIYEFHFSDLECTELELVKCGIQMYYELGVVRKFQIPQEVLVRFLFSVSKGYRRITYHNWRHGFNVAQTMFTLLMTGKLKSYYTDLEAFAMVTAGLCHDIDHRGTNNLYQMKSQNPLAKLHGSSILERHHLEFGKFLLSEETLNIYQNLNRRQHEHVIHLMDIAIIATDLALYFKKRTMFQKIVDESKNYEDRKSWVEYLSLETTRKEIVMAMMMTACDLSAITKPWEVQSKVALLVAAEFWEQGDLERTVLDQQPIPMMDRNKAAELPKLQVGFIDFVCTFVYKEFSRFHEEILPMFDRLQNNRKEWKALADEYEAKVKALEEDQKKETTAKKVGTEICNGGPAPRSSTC
Test: PDE6 inhibition (FP or SPA general type of assay)
Type: biochemical
Conditions: in the particular assays used
Text: PDE6 can be purified from bovine retina as described by: P. Catty and P. Deterre, “Activation and solubilization of the retinal cGMP-specific phosphodiesterase by limited proteolysis”, Eur. J. Biochem., 1991, 199, 263-269; A. Tar et al. “Purification of bovine retinal cGMP phosphodiesterase”, Methods in Enzymology, 1994, 238, 3-12; and/or D. Srivastava et al. “Effects of magnesium on cyclic GMP hydrolysis by the bovine retinal rod cyclic GMP phosphodiesterase”, Biochem. J., 1995, 308, 653-658.
The ability of compounds to inhibit catalytic activity at PDE4B or 4D (human recombinant), PDE3 (from bovine aorta), PDE5 (human recombinant) or PDE6 (from bovine retina) can optionally be determined by Scintillation Proximity Assay (SPA) in a 96-well format.
Test compounds (as a solution in DMSO, suitably about 2 microlitre (ul) volume of DMSO solution) are preincubated at ambient temperature (room temperature, e.g. 19-23° C.) in Wallac Isoplates (code 1450-514) with PDE enzyme in 50 mM Tris-HCl buffer pH 7.5, 8.3 mM MgCl2, 1.7 mM EGTA, 0.05% (w/v) bovine serum albumin for 10-30 minutes (usually 30 minutes). […] Bound radioactive product is measured using a WALLAC TRILUX 1450 Microbeta scintillation counter. […] Curves are analysed using ActivityBase and XLfit (ID Business Solutions Limited, 2 Ocean Court, Surrey Research Park, Guildford, Surrey GU2 7QB, United Kingdom). […]

**Q.** With `CCc1nc2c(cnn2CC)c(NC2CCOCC2)c1CNC(=O)c1cc(C)no1` [Example 1, N-{[1,6-diethyl-4-(tetrahydro-2H-pyran-4-ylamino)-1H-pyrazolo[3,4-b]pyridin-5-yl]methyl}-3-methyl-5-isoxazolecarboxamide] as the compound, how does the “PDE4B pIC50 compared with PDE6 pIC50 (selectivity)” value read?
**A.** Its value is “inhibits PDE4B more strongly than it inhibits PDE3, PDE5 and PDE6”.
